Reference: US20180125995A1, “ANTI-STAPHYLOCOCCUS AUREUS ANTIBODY RIFAMYCIN CONJUGATES AND USES THEREOF” (priority 2014, published 2018)
≈ marks a conversion by molar mass, not a printed value.

Legend:
[1] = tested on: MRSA (NRS384 strain of USA300); experiment: MIC determination for extracellular bacteria in liquid culture; assay type: cell-based; conditions: Staphylococcus aureus, read-out: Extracellular MRSA MIC
Protocol: The MIC for extracellular bacteria was determined by preparing serial 2-fold dilutions of the antibiotic in Tryptic Soy Broth. Dilutions of the antibiotic were made in quadruplicate in 96 well culture dishes. MRSA (NRS384 strain of USA300) was taken from an exponentially growing culture and diluted to 1×10^4 CFU/mL. The bacteria was cultured in the presence of antibiotic for 18-24 hours with shaking at 37° C. and bacterial growth was determined by reading the Optical Density (OD) at […]. The MIC was determined to be the dose of antibiotic that inhibited bacterial growth by >90%.
(§1) For extracellular bacteria, MRSA was cultured overnight in Tryptic Soy Broth, and the MIC was determined to be the minimum antibiotic dose that prevented growth. For intracellular bacteria, murine peritoneal macrophages were infected with MRSA and cultured in the presence of gentamycin to kill extracellular bacteria. Test antibiotics were added to the culture medium one day post infection, and the total number of surviving intracellular bacteria was determined 24 hours later. The expected serum concentrations for clinically relevant antibiotics was reported in Antimicrobial Agents, Andre Bryskier. ASM Press, Washington D.C. (2005).

[2] = tested on: MRSA sequestered inside mouse peritoneal macrophages; experiment: MIC determination for intracellular bacteria sequestered inside murine macrophages; assay type: cell-based, Staphylococcus aureus; conditions: for MIC: Staphylococcus aureus, MRSA, 24 h, read-out: Intracellular MRSA MIC; for killing of MRSA sequestered inside macrophages: clinically achievable concentrations of the antibiotics
Protocol: Intracellular MIC was determined on bacteria that were sequestered inside mouse peritoneal macrophages (see below for generation of murine peritoneal macrophages). Macrophages were plated in 24 well culture dishes at a density of 4×10^5 cells/mL and infected with MRSA at a ratio of 10-20 bacteria per macrophage. Macrophage cultures were maintained in growth media supplemented with 50 ug/mL of gentamycin (an antibiotic that is active only on extracellular bacteria) to inhibit the growth of extracellular bacteria and test antibiotics were added to the growth media 1 day after infection. The survival of intracellular bacteria was assessed 24 hours after addition of the antibiotics. Macrophages were lysed with Hanks Buffered Saline Solution supplemented with 0.1% Bovine Serum Albumin and 0.1% Triton-X, and serial dilutions of the lysate were made in Phosphate Buffered Saline solution containing 0.05% Tween-20. The number of surviving intracellular bacteria was determined by plating on Tryptic Soy Agar plates with 5% defibrinated sheep blood.
as §1

MRSA = experiment: In vitro survival of MRSA in presence of vancomycin (planktonic, on MG63 osteoblasts, inside peritoneal cells); assay type: cell-based, Staphylococcus aureus
Protocol: Further analyses in vitro addressed more quantitatively the extent to which intracellular survival facilitates antibiotic evasion. To this end, MG63 osteoblasts were infected with either planktonic MRSA or intracellular MRSA, in the presence of vancomycin.
Infection of osteoblasts or HBMEC. MG63 cell line was obtained from ATCC (CRL-1427) and maintained in RPMI 1640 tissue culture media supplemented with 10 mM Hepes and 10% Fetal Calf Serum (RPMI-10). HBMEC cells (Catalog #1000) and ECM media (catalog#1001) were obtained from SciencCell Research Labs (Carlsbad, Calif.). Cells were plated in 24 well tissue culture plates and cultured to obtain a confluent layer. On the day of the experiment, the cells were washed once in RPMI (without supplements). MRSA or infected peritoneal cells were diluted in complete RPMI-10 and vancomycin was added at 5 ug/mL immediately prior to infection. Peritoneal cells were added to the osteoblasts at 1×10^6 peritoneal cells/mL. A sample of the cells was lysed with 0.1% triton-x to determine the actual concentration of live intracellular bacteria at the time of infection. The actual titer for all infections was determined by plating serial dilutions of the bacteria on Tryptic Soy Agar with 5% defibrinated sheep blood.
MRSA (free bacteria) was seeded in media, media+vancomycin, or media+vancomycin and plated on a monolayer of MG63 osteoblasts (FIG. 1E) or Human Brain Microvascular Endothelial Cells (HBMEC, FIG. 1F). Plates were centrifuged to promote contact of the bacteria with the monolayer. At each time point, the culture supernatant was collected to recover extracellular bacteria or adherent cells were lysed to release intracellular bacteria.

S. aureus = experiment: Mouse intravenous infection with free vs intracellular S. aureus, vancomycin therapy; assay type: in vivo, Staphylococcus aureus; conditions: mice, i.v. infection, vancomycin immediately after infection then once per day, 4 days post infection
Protocol: FIGS. 1A-1F: Intracellular stores of MRSA are protected from vancomycin in vivo and in vitro. […] Four cohorts of mice were infected by intravenous injection with roughly equivalent doses of viable free bacteria or intracellular bacteria and selected groups were treated with vancomycin immediately after infection and then once per day (see Example 2). FIG. 1B and FIG. 1C show bacterial loads in kidney and brain, respectively of infected mice 4 days post infection. The dashed line indicates the limit of detection for the assay. […] (ND=none detected). […] MRSA (free bacteria) was seeded in media, media+vancomycin, or media+vancomycin and plated on a monolayer of MG63 osteoblasts (FIG. 1E) or Human Brain Microvascular Endothelial Cells (HBMEC, FIG. 1F). Extracellular bacteria (free bacteria) grew well in media alone, but were killed by vancomycin. In wells containing a monolayer of mammalian cells (Intracellular+vanco) a fraction of the bacteria were protected from vancomycin during the first 8 hours after infection and were able to expand within the intracellular compartment over 24 hours. Error bars show standard deviation for triplicate wells.
These experiments compared the virulence of intracellular bacteria versus an equivalent dose of free-living planktonic bacteria, and determined whether the intracellular bacteria are able to establish infection in the presence of vancomycin in vivo. […]

[3] = tested on: S. aureus (USA300 NRS384 strain) in murine macrophages; experiment: In vitro macrophage assay; assay type: cell-based, Staphylococcus aureus; conditions: for reduction of bacterial loads: highest dose tested (100 ug/mL), intracellular bacteria 2 days later; for killing of intracellular MRSA: macrophage assay in vitro
Protocol: S. aureus (USA300 NRS384 strain) was incubated with various doses (100 ug/mL, 10 ug/mL, 1 ug/mL or 0.1 ug/mL) of an anti-S. aureus unconjugated antibody, 103 AAC loaded with 1.9 average antibiotic molecules per antibody (AAR2) or with 102 AAC loaded with 3.9 average antibiotic molecules per antibody (AAR4) for 1 hour to permit binding of the antibody to the bacteria. The resulting opsonized bacteria were fed to murine macrophages and incubated at 37° C. to permit phagocytosis (in vitro macrophage assay). After 2 hours, the infection mix was removed and replaced with normal growth media supplemented with 50 ug/mL of gentamycin to kill any remaining extracellular bacteria. The total number of surviving intracellular bacteria was determined 2 days later by plating serial dilutions of the macrophage lysates on Tryptic Soy Agar plates.

[4] = tested on: MRSA (USA300 NRS384 strain); experiment: Murine intravenous infection model (SCID IVIG model); assay type: in vivo, Staphylococcus aureus; conditions: for mice having undetectable level of bacteria in hearts: day 4, n=8; for reduction of bacterial load in kidneys: vs naked antibody
Protocol: Murine intravenous infection model. For studies involving competing human IgG (SCID IVIG model), CB17.SCID mice (Charles River Laboratories, Hollister, Calif.) were reconstituted with GammaGard S/D IGIV Immune Globulin (ASD Healthcare, Brooks Ky.) using a dosing regimen optimized to achieve constant serum levels of at least 10 mg/mL of human IgG in serum. IGIV was administered with an initial intravenous dose of 30 mg per mouse followed by a second dose of 15 mg/mouse by intraperitoneal injection after 6 hours, and subsequent daily dosing of 15 mg per mouse by intraperitoneal injection for 3 consecutive days.
Mice (n=8 for each of antibody or AAC) were infected 4 hours after the first dose of IGIV with 1×10^7 CFU of MRSA (USA300 NRS384 strain) diluted in phosphate buffered saline by intravenous injection. Infected mice were treated with 50 mg/kg of rF1 naked antibody, 103 AAC DAR2 or 102 AAC DAR4. Mice were given a single dose of AAC 26h post infection by intravenous injection, sacrificed on day 4 post infection, and kidneys and hearts were harvested in 5 mL of phosphate buffered saline. The tissue samples were homogenized using a GentleMACS Dissociator™ (Miltenyi Biotec, Auburn, Calif.). The total number of bacteria recovered per organ was determined by plating serial dilutions of the tissue homogenate in PBS 0.05% Tween on Tryptic Soy Agar with 5% defibrinated sheep blood.

[5] = target: glycosylated serine-aspartate repeat (SDR) proteins of Staphylococcus aureus, as displayed on whole bacteria, in lysates or in cell wall preparations; experiment: flow cytometry on whole USA300 bacteria
[6] = CB17.SCID mice with IGIV, 50 mg/kg single i.v. dose 26h post infection, day 4

CCCCCCCCCC(=O)N[C@@H](Cc1c[nH]c2ccccc12)C(=O)N[C@H](CC(N)=O)C(=O)N[C@@H](CC(=O)O)C(=O)N[C@@H]1C(=O)NCC(=O)N[C@@H](CCCN)C(=O)N[C@@H](CC(=O)O)C(=O)N[C@H](C)C(=O)N[C@@H](CC(=O)O)C(=O)NCC(=O)N[C@H](CO)C(=O)N[C@@H]([C@H](C)CC(=O)O)C(=O)N[C@@H](CC(=O)c2ccccc2N)C(=O)O[C@@H]1C [Daptomycin]
MIC [1]: 4 µg/mL (≈ 2.47 µM) | MIC [2]: > 100 µg/mL | killing of MRSA sequestered inside macrophages [2]: failed to kill

CC(=O)NC[C@H]1CN(c2ccc(N3CCOCC3)c(F)c2)C(=O)O1 [Linezolid]
killing of MRSA sequestered inside macrophages [2]: failed to kill

CO[C@H]1/C=C/O[C@@]2(C)Oc3c(C)c(O)c4c(O)c(c(/C=N/N5CCN(C)CC5)c(O)c4c3C2=O)NC(=O)/C(C)=C\C=C\[C@H](C)[C@H](O)[C@@H](C)[C@@H](O)[C@@H](C)[C@H](OC(C)=O)[C@@H]1C [Rifampicin]
fold higher dose to eliminate intracellular MRSA compared to MIC of planktonic bacteria ([2]; intracellular vs planktonic): 6,000 fold

CN[C@H](CC(C)C)C(=O)N[C@H]1C(=O)N[C@@H](CC(N)=O)C(=O)N[C@H]2C(=O)N[C@H]3C(=O)N[C@H](C(=O)N[C@H](C(=O)O)c4cc(O)cc(O)c4-c4cc3ccc4O)[C@H](O)c3ccc(c(Cl)c3)Oc3cc2cc(c3O[C@@H]2O[C@H](CO)[C@@H](O)[C@H](O)[C@H]2O[C@H]2C[C@](C)(N)[C@H](O)[C@H](C)O2)Oc2ccc(cc2Cl)[C@H]1O [Vancomycin]
MIC [1]: 1 µg/mL (≈ 0.69 µM) | MIC [2]: > 100 µg/mL | killing of MRSA sequestered inside macrophages [2]: failed to kill | survival of intracellular MRSA in the leukocytes (MRSA; MRSA sequestered inside peritoneal cells, vancomycin, identical conditions): About 15% | killing of planktonic bacteria (MRSA; planktonic bacteria exposed to vancomycin alone, 5 ug/mL, one day in culture): efficiently killed | surviving bacteria associated with MG63 cells (% of input) (MRSA; planktonic bacteria plated on MG63 osteoblasts, vancomycin, one day after infection): approximately 0.06% | establishment of infection in kidney and brain under vancomycin therapy (S. aureus): intracellular bacteria, but not planktonic bacteria, were able to establish infection

thio-rF1-HC-121C, LC-V205C-MC-(CBDK-cit)-PAB-(dimethylpipBOR) [AAC 102]
reduction of bacterial loads [3]: more than 4,000 fold | killing of intracellular MRSA [3]: killed intracellular MRSA | eradication of infection in hearts ([4]; 50 mg/kg single i.v. dose, day 4): completely eradicated infection in hearts | mice having undetectable level of bacteria in hearts ([4]; 50 mg/kg single i.v. dose): 8 out of 8 | reduction of bacterial load in kidneys [4, 6]: more than 30,000 fold

thio-rF1-LC-V205C-MC-(CBDK-cit)-PAB-(dimethylpipBOR) [AAC 103]
reduction of bacterial loads [3]: 350 fold | killing of intracellular MRSA [3]: killed intracellular MRSA | mice having undetectable level of bacteria in hearts ([4]; 50 mg/kg single i.v. dose): 6 out of 8 | reduction of bacterial burdens in heart [4, 6]: approximately 70 fold | reduction of bacterial load in kidneys [4, 6]: approximately 30 fold

B1: monoclonal antibody rF1 (recombinantly produced F1), human IgG1 kappa (antibody, V domains shown)
VH: EVQLVESGGGLVQPGGSLRLSCAASGFTLSRFAMSWVRQAPGRGLEWVASINNGNNPYYARSVQYRFTVSRDVSQNTVSLQMNNLRAEDSATYFCAKDHPSSGWPTFDSWGPGTLVTVSS
VL: DIQLTQSPSALPASVGDRVSITCRASENVGDWLAWYRQKPGKAPNLLIYKTSILESGVPSRFSGSGSGTEFTLTISSLQPDDFATYYCQHYMRFPYTFGQGTKVEIKR
fold of maximum binding (MFI) against anti-ClfA mAb 4675 [5]: 10 fold
